Here are results for 1 compound from US7618988B2, “Use of substituted aminomethyl chromans” (Merck Patentgesellschaft, priority 2001, dated 2009).

The subject of test [1] is patients with cervical dystonia (spasmodic torticollis). Nature of the test: double-blind study in cervical dystonia (TWSTRS). Format: in vivo, human. To be noted: 2.5 mg to 20 mg b.i.d.
Test [2] has as its system rats. Nature of the test: posthypoxic myoclonus in rats. As to conditions: rat, in vivo. How it is done:
A typical animal model for myoclonus is myoclonus induced by an acute hypoxic episode according to D. D. Truong et al., Mov. Dsiord., 1994; 9: 201-206). In this model of posthypoxic myoclonus, rats undergo a cardiac arrest for 8 minutes and are resuscitated thereafter. Myoclonic jerks occur spontaneously but can be provoked by auditory stimulation, too, worsening over the days following cardiac arrest.

In test [3] the test system is Weaver mutant mouse. Nature of the test: Weaver mutant mouse (locomotor activity). To be noted: in vivo. From the text: Typical genetic models in mutant animals are the Campus Syndrome in the Pietrain pig according to A. Richter et al. (Exp. Neurology, 1995; 134: 205-213) or the Weaver mutant mouse according to J. R. Simon and B. Ghetti (Mol. Neurobiol., 1994; 9: 183-189). In the Campus Syndrome model, these mutant pigs show a high-frequency tremor when standing and during locomotion, but not while lying at rest. Assessment of tremor is made by accelerometric recording. In the Weaver mutant mouse, degenerative cerebellar atrophy is […] in association with tremor, gait instability, and toppling over the sides after a few steps.

In test [4] the test system is rat. The test is described as follows: striatonigral degeneration model in the rat (turning behavior). Format: in vivo. To be noted: induced by apomorphine or amphetamine. From the text:
Another more recent animal model is the striatonigral degeneration approach in the rat according to G. K. Wenning et al., J. Neural Transm. Suppl., 1999; 55: 103-113. Rats receive an unilateral injection of 6-hydroxydopamine into the left medial forebrain bundle followed by an injection of quinolinic acid into the ipsilateral striatum inducing nigrostriatal degeneration. The degeneration results in turning behavior to a challenge with dopaminomimetics such as apomorphine or amphetamine. Turning behavior is measured by an automated recorder.

For test [5], the target named is dopamine D4 receptors (Homo sapiens, UniProt P21917). Nature of the test: dopamine D4 receptor radioligand binding. As to conditions: in vitro radioligand binding. The text has this: (§1) The affinity to the 5-HT1A receptor can be determined in vitro by radioligand binding experiments according to Cossery J M et al. (Eur. J. Pharmacol. 1987; 140: 143-155). The functional agonistic properties at the 5HT1A receptor can be determined in vitro in the GTP-gamma-S test (Newman-Tancredi A et al., Eur. J. Pharmacol.1996; 307: 107-111). A standard in vivo animal model to test for the 5HT1A agonistic properties is the ultrasonic vocalization test in rats (e.g. deFry J et al., Eur. J. Pharmacol. 1993; 249: 331-339; Sanchez C, Behav. Pharmacol. 1993; 4: 269-277). The affinity for dopamine D4 receptors can be determined in vitro by radioligand binding experiments according to Klokow M et al. (Drug Res. 1986; 36: 197-200).

For test [6], the system named is neuroleptics sensitized monkey. Nature of the test: neuroleptics sensitized monkey. As to conditions: haloperidol challenge, scoring system. Format: in vivo. From the text:
Another typical animal model is the neuroleptics sensitized monkey according to D. E. Casey, Psychopharmacology, 1996; 124: 134-140. Monkeys treated repeatedly with conventional neuroleptics are highly sensitive to a subsequent challenge dose of neuroleptic drugs. When challenged, the monkeys immediately show extrapyramidal motor side effects such as dystonia, dyskinesias, akathisia, and bradykinesia which are rated by a scoring system. The conventional neuroleptic drug haloperidol is given as a challenge.

In test [7] the test system is patients with Huntington's disease. Nature of the test: trial in patients with Huntington's disease. Format: in vivo, human. To be noted: add on, 2.5 to 20 mg b.i.d. How it is done:
A typical trial to establish the effect of the compounds according to the invention on chorea, voluntary motor performance, and functional disability in patients with Huntington's disease encompasses 32 genetically diagnosed patients. (2R,4R)-2-({[5-(4-fluorophenyl)-pyridin-3ylmethyl]-amino}-methyl)-chroman-4-ol monohydrochloride hemihydrate or placebo is administered as “add on” to the conventional treatment, which is maintained unchanged during the whole study. The dose of blinded medication is titrated over a period of 3 weeks in a range from 2.5 to 20 mg b.i.d. Then the medication is held constant for 1 week. Assessments are performed in the week before and at the last day of the trial. Chorea is scored using the abnormal involuntary movement scale (AIMS, W. Guy, in: ECDEU assessment manual. Rockville Md.: US dept. of health, education and welfare, 1976: 534-537), the unified Huntington's disease rating scale (UHDRS, Huntington study group, 1996, Movement Disord, 11: 13642), and judgement of video recordings. Voluntary motor performance is assessed using the UHDRS motor scale. Patients and their partners complete a questionnaire regarding functional disability.

The subject of test [8] is rats. Nature of the test: ultrasonic vocalization test in rats. To be noted: Rattus norvegicus, in vivo.
From the text: as §1

The target of test [9] is D2 receptors (Homo sapiens, UniProt P14416). Nature of the test: binding / inhibitory effect at dopamine D2 receptor.
In test [10] the target is 5HT1A receptor (Homo sapiens, UniProt P08908). Nature of the test: GTP-gamma-S test (5HT1A agonism). To be noted: in vitro, 5HT1A agonistic properties; read-out: ED50 in GTP-gamma-S test. Format: biochemical.
From the text: as §1

Test [11] deals with reserpinized rat or mouse. The test is described as follows: reserpinized rat or mouse (akinesia). Format: in vivo. As to conditions: 24 h after reserpine. How it is done:
A typical animal model is the reserpinized rat or mouse (e.g. M. S. Starr and B. S. Starr, J. Neural Transm.—Park. Dis. Dement. Sect., 1994; 7: 133-142; M. Gossel et al., J. Neural Transm.—Park. Dis. Dement. Sect., 1995; 10: 27-39; N. R. Hughes et al., Mov. Disord., 1998; 13: 228-233). Reserpine is a potent depleter of monoamines and produces nearly complete akinesia in both species. Prominent 24 h after application, the distance travelled and the time active is nearly zero as measured in conventional activity meters.

The target in test [12] is 5-HT1A receptor (UniProt P19327). The test is described as follows: 5-HT1A receptor radioligand binding. To be noted: in vitro radioligand binding; read-out: IC50, binding to 5HT1A receptors.
From the text: as §1

The subject of test [13] is oxotremorine-induced tremor. The test is described as follows: oxotremorine-induced tremor. Format: in vivo. To be noted: rating scale. How it is done: A typical animal model for drug-induced tremors is the oxotremorine-induced tremor (e.g. H. Hallberg and O. Almgren, Acta Physiol. Scand., 1987; 129: 407-13; J. G. Clement and W. R. Dyck, J. Pharmacol. Meth., 1989; 22: 25-36). Oxotremorine induces tremor which is measured by a rating scale.

5HT1A receptor, sequence (P08908 whole entry): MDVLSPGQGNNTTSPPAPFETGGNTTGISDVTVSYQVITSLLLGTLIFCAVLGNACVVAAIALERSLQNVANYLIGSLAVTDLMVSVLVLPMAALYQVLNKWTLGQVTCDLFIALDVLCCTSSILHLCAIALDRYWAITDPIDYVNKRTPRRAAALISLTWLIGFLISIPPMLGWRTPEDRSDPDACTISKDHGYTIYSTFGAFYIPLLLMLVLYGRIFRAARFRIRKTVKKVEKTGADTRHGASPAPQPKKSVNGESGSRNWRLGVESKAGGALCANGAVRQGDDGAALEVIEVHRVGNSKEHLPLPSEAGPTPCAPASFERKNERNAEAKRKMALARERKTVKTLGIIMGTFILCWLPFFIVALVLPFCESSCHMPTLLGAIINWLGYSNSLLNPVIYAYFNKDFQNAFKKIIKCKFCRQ
dopamine D4 receptors, sequence (P21917 whole entry): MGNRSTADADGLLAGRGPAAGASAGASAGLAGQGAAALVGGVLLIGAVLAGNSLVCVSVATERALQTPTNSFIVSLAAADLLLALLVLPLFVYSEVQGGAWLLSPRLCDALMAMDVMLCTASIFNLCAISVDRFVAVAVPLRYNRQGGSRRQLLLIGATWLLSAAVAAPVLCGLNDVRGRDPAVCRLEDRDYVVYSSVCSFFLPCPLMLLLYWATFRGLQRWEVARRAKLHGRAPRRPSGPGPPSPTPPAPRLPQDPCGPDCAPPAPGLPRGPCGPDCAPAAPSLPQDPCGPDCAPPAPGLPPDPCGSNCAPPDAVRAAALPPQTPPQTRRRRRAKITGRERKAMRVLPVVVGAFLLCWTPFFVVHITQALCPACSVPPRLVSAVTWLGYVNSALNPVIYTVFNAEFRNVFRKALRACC
D2 receptors, sequence (P14416 whole entry): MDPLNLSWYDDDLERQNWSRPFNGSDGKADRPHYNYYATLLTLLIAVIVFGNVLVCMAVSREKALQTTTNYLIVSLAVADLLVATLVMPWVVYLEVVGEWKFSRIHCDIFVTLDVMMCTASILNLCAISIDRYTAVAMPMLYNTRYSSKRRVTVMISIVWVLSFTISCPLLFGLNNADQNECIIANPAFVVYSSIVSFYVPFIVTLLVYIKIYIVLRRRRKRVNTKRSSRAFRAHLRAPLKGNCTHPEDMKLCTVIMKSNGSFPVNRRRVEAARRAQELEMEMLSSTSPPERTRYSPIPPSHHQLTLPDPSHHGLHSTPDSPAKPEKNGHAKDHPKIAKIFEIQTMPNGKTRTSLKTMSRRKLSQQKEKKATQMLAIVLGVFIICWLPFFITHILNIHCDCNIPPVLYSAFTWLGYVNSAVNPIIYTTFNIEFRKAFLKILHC

Take `O[C@@H]1C[C@H](CNCc2cncc(-c3ccc(F)cc3)c2)Oc2ccccc21` [(2R,4R)-2-({[5-(4-fluorophenyl)-pyridin-3ylmethyl]-amino}-methyl)-chroman-4-ol]: the TWSTRS scores entry in [1] is on record as “significant improvement”. Moreover, the “number of spontaneous and auditory-evoked myoclonic jerks” value in test [2] is “dose-dependently reduce the number of spontaneous and autitory-evoked myoclonic jerks”. In addition, in test [3], the locomotor activity result is “enhance locomotor activity”. Also, the turning behavior result in test [4] is recorded as “dose-dependently antagonized”. For the same compound, the IC50 came out at 0.012 µM in [5] and 0.01 µM in test [12]. In addition, the “extrapyramidal motor side effects” value in [6] is “dose-dependently reduce the extrapyramidal motor side effects”. Further, the “voluntary and involuntary motor performance” value in test [7] was “significant improvement of voluntary and involuntary motor performance”. In [8], this compound showed an ED50 of 2 mg/kg. Moreover, the “binding to D2 receptors” value in [9] is reported as “no or only a very weak binding”. For the same compound, the EC50 in [10] came to 0.033 µM. Besides, in [11], the “akinesia (distance travelled and time active)” value is listed as “dose-dependently reduce akinesia”. Moreover, in test [13], the oxotremorine-induced tremors entry was “inhibit oxotremorine-induced tremors”.

The term IC50 denotes the concentration needed to halve the response being measured. A word on the ED50: it is the dose at which the effect has come halfway, by size or by number of responders.
